The record followed here is US7001906B2, “Pyrido-pyrido-pyrrolo pyrrolo-indole and pyrido-pyrrolo pyrrolo carbazole derivatives, method for the production thereof and pharmaceutical compositions containing said derivatives” (Les Laboratoires Servier, priority 2001, dated 2006).

Common to all, as to type: cell-based
One experiment deals with neuroblastoma SK-N-MC. The experiment in a line: In vitro cytotoxicity on human cell lines: neuroblastoma SK-N-MC. The note with it: 96 h, incubation 4 days. How it is done:
(§1) Murine leukaemia L1210 was used in vitro. The cells are cultured in RPMI 1640 complete culture medium containing 10% foetal calf serum, 2 mM glutamine, 50 units/ml of penicillin, 50 μg/ml of streptomycin and 10 mM Hepes, pH: 7.4. The cells are distributed on microplates and exposed to the cytotoxic compounds for 4 doubling periods, or 48 hours. The number of viable cells is then quantified by means of a colorimetric assay, the Microculture Tetrazolium Assay (J. Carmichael et al., Cancer Res., 47, 936–942, (1987)). The results are expressed as IC50, the concentration of cytotoxic agent which inhibits the proliferation of the treated cells by 50%.
(§2) The compounds of the invention were also tested on human cell lines according to the same experimental protocol as that described for murine leukaemia L1210, but with incubation times of 4 days instead of 2 days.

For experiment [1], the system named is epidermoid carcinoma A431. The experiment in a line: In vitro cytotoxicity on human cell lines: epidermoid carcinoma A431. The conditions noted are these: A-431, 96 h, epidermoid carcinoma A431, incubation 4 days. As for the experimental part:
as §1, §2

In experiment [2] the test system is small cell lung carcinoma H 69. Nature of the experiment: In vitro cytotoxicity on human cell lines: small cell lung carcinoma H 69. The conditions noted are these: 96 h, small cell lung carcinoma H 69, incubation 4 days. How it is done:
as §1, §2

In a further experiment the test system is Murine leukaemia L1210. Nature of the experiment: In vitro cytotoxicity, murine leukaemia L1210 (Microculture Tetrazolium Assay). The conditions noted are these: Mus musculus; L1210, exposure 4 doubling periods, or 48 hours; read-out: IC50, the concentration of cytotoxic agent which inhibits the proliferation of the treated cells by 50%. As for the experimental part:
as §1

On to `O=C1NC(=O)c2c1c1c3ccccc3[nH]c1c1c2c2cccnc2n1[C@@H]1O[C@H](CO)[C@@H](O)[C@H](O)[C@H]1O` [Example 3, 13-(β-D-glucopyranosyl)-12,13-dihydro-5H-pyrido[3′,2′:4,5]pyrrolo-[2,3-a]pyrrolo[3,4-c]carbazole-5,7(6H)-dione], for which the IC50 (with neuroblastoma SK-N-MC; in experiment [1]; in experiment [2]) was under 1000 nM throughout.

`O=C1NC(=O)c2c1c1c3cc(Br)ccc3[nH]c1c1c2c2cccnc2n1[C@@H]1O[C@H](CO)[C@@H](O)[C@H](O)[C@H]1O` [Example 4, 9-bromo-13-(β-D-glucopyranosyl)-12,13-dihydro-5H-pyrido-[3′,2′:4,5]pyrrolo[2,3-a]pyrrolo [3,4-c]carbazole-5,7(6H)-dione]: the IC50 with Murine leukaemia L1210 is under 100 nM; in the experiment with neuroblastoma SK-N-MC it was under 1000 nM; in experiment [1], under 1000 nM; in experiment [2], under 1000 nM.

With `O=C1NC(=O)c2c1c1c3cc([N+](=O)[O-])ccc3[nH]c1c1c2c2cccnc2n1[C@@H]1O[C@H](CO)[C@@H](O)[C@H](O)[C@H]1O` [Example 5, 9-nitro-13-(β-D-glucopyranosyl)-12,13-dihydro-5H-pyrido-[3′,2′:4,5]pyrrolo[2,3-a]pyrrolo[3,4-c]carbazole-5,7(6H)-dione], the IC50 in the experiment on Murine leukaemia L1210 was under 100 nM; in the experiment on neuroblastoma SK-N-MC, under 1000 nM; in experiment [1], under 1000 nM; in experiment [2], under 1000 nM.

For the molecule `O=C1NC(=O)c2c1c1c3cccnc3[nH]c1c1c2c2ccccc2n1[C@@H]1O[C@H](CO)[C@@H](O)[C@H](O)[C@H]1O` [Example 9, 12-(β-D-glucopyranosyl)-12,13-dihydro-5H-pyrido[3′,2′:4,5]pyrrolo-[2,3-a]pyrrolo[3,4-c]carbazole-5,7(6H)-dione], the IC50 with Murine leukaemia L1210 was under 100 nM.

Regarding `O=C1NC(=O)c2c1c1c3cccnc3[nH]c1c1c2c2cccnc2n1[C@@H]1O[C@H](CO)[C@@H](O)[C@H](O)[C@H]1O` [Example 12, 12-(β-D-glucopyranosyl)-12,13-dihydro-5H-pyrido[2,3-b]-pyrido[3′,2′:4,5]pyrrolo[3,2-g]pyrrolo[3,4-e]indole-5,7(6H)-dione], in the experiment on Murine leukaemia L1210, the IC50 was under 100 nM.

For the molecule `CN1C(=O)c2c(c3c4cccnc4n([C@@H]4O[C@H](CO)[C@@H](O)[C@H](O)[C@H]4O)c3c3[nH]c4ccccc4c23)C1=O` [Example 17, 13-(β-D-glucopyranosyl)-6-methyl-12,13-dihydro-5H-pyrido-[3′,2′:4,5]pyrrolo [2,3-a]pyrrolo [3,4-c]carbazole-5,7(6H)-dione], the IC50 (in the experiment with neuroblastoma SK-N-MC; in experiment [1]; in experiment [2]) was under 1000 nM in each case.

In the case of `CN1C(=O)c2c(c3c4cccnc4n([C@@H]4O[C@H](CO)[C@@H](O)[C@H](O)[C@H]4O)c3c3[nH]c4ccc(Br)cc4c23)C1=O` [Example 19, 13-(β-D-glucopyranosyl)-9-bromo-6-methyl-12,13-dihydro-5H-pyrido[3′,2′:4,5]pyrrolo[2,3-a]pyrrolo[3,4-c]carbazole-5,7(6H)-dione], the IC50 (in the experiment with neuroblastoma SK-N-MC; in experiment [1]; in experiment [2]) was under 1000 nM throughout.
